Patent publication US20140221374A1, “RAF KINASE INHIBITORS” (Ruga Corporation, priority 2011, published 2014)

Tests used:
[1] = biological target: V600E-mutated B-RAF (Homo sapiens, UniProt P15056, V600E); assay: In vitro assay for inhibition of mutant B-RAF kinase (recombinant V600E-mutated B-RAF, MEK (K97R) substrate); type: biochemical; details: 10 nM recombinant V600E-mutated B-RAF
Protocol: The ability of compounds described herein to inhibit RAF kinase activity were determined from biochemical kinase inhibition assays using recombinant RAF proteins as known in the art.
Solutions of varying concentrations of test compounds or vehicle were added to 10 nM recombinant V600E-mutated B-RAF proteins incubated in the presence of different concentrations of ATP and […] (K97R) as substrate, as previously described (Wilhelm, S. M., et al., Cancer Res., 64: 7099-7109, 2004; Mason, C. S., et al.; EMBO J. 18: 2137-2.148, 1999; Marais, R., et al., J. Biol. Chem., 272: 4378-4383, 1997). At least triplicate determinations for each individual test compound concentration were made and data plotted as mean±standard deviation relative to the control vehicle.

[2] = system: A375 cells (V600E activated B-RAF); assay: In vitro tumor cell growth inhibition, MTT, 72 hours; type: cell-based; details: Homo sapiens, A-375, 72 hours incubation
Protocol: Briefly, growth inhibition of cells containing V600E activated B-RAF (A375, Colo205) versus cell lines with wild-type B-RAF (A431) were measured under anchorage-dependent conditions using MTT (3-(4,5-dimethylthiazol-2-yl)-2,5-diphenyltetrazolium bromide), following 72 hours incubation with either compound or vehicle, as previously described (Haass, N. K., et al., Clinical Cancer Res., 14: 230-239, 2008): Cell lines are obtained from the American Type Tissue Culture Collection (Maryland, USA) and cultured in media containing heat-inactivated 10% fetal bovine serum. Cell cultures were also maintained in 10 U/mL, penicillin, 100 μg/mL streptomycin and 2 mM glutamine. At least triplicate determinations for each individual test compound concentration were made and data plotted as mean±standard deviation relative to the control vehicle.

Sequence of V600E-mutated B-RAF (P15056 whole entry V600E): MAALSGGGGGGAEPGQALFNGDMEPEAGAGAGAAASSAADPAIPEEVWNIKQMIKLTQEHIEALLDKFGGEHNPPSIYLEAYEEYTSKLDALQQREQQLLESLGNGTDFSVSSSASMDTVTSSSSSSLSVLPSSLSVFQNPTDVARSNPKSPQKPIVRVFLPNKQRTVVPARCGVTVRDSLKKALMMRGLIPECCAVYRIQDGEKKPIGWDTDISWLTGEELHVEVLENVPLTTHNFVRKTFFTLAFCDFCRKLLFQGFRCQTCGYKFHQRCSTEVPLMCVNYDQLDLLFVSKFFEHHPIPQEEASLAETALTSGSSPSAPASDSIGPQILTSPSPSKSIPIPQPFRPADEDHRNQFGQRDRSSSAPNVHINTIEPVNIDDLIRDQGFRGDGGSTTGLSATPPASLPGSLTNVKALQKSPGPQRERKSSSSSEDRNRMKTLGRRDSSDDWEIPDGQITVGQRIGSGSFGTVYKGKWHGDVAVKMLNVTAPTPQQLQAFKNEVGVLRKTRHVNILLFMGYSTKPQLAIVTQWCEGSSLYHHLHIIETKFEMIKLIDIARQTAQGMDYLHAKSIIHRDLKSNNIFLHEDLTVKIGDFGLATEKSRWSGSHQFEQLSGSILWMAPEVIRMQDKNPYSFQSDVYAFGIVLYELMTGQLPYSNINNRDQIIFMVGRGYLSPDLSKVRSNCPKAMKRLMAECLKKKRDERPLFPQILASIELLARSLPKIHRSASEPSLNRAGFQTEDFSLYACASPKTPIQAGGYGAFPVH

Structure (SMILES): Cc1nc(-c2ccncc2)c(-c2cccc(NC(=O)Nc3ccc(Cl)c(C(F)(F)F)c3)c2)s1 [Example 2, 1-(4-chloro-3-(trifluoromethyl)phenyl)-3-(3-(2-methyl-4-(pyridin-4-yl)thiazol-5-yl)phenyl)urea]
- IC50 [1]: ≤ 0.1 µM

Structure (SMILES): Cc1nc(-c2ccncc2)c(-c2cccc(NC(=O)Nc3ccc(Cl)cc3)c2)s1 [Example 3, 1-(4-chlorophenyl)-3-(3-(2-methyl-4-(pyridin-4-yl)thiazol-5-yl)phenyl)urea]
- IC50 [2]: 1 to 10 µM
- IC50 [1]: ≤ 0.1 µM

Structure (SMILES): Cc1nc(-c2ccncc2)c(-c2cccc(NC(=O)Nc3ccc(F)cc3)c2)s1 [Example 4, 1-(4-fluorophenyl)-3-(3-(2-methyl-4-(pyridin-4-yl)thiazol-5-yl)phenyl)urea]
- IC50 [1]: 0.1 to 1 µM

Structure (SMILES): Cc1nc(-c2ccncc2)c(-c2cccc(NC(=O)Nc3cc(F)ccc3F)c2)s1 [Example 5, 1-(2,5-difluorophenyl)-3-(3-(2-methyl-4-(pyridin-4-yl)thiazol-5-yl)phenyl)urea]
- IC50 [1]: 0.1 to 1 µM

Structure (SMILES): Cc1nc(-c2ccncc2)c(-c2cccc(NC(=O)Nc3c(F)cccc3F)c2)s1 [Example 6, 1-(2,6-difluorophenyl)-3-(3-(2-methyl-4-(pyridin-4-yl)thiazol-5-yl)phenyl)urea]
- IC50 [1]: 0.1 to 1 µM

Structure (SMILES): Cc1ccc(NC(=O)Nc2ccc(F)c(-c3sc(C)nc3-c3ccncc3)c2)cc1 [Example 8, 1-(4-fluoro-3-(2-methyl-4-(pyridin-4-yl)thiazol-5-yl)phenyl)-3-p-tolylurea]
- IC50 [1]: ≤ 0.1 µM

Structure (SMILES): Cc1nc(-c2ccncc2)c(-c2cccc(NC(=O)Nc3ccc(C(F)(F)F)cc3)c2)s1 [Example 9, 1-(3-(2-methyl-4-(pyridin-4-yl)thiazol-5-yl)phenyl)-3-(4-(trifluoromethyl)phenyl)urea]
- IC50 [2]: 0.1 to 1 µM
- IC50 [1]: ≤ 0.1 µM

Structure (SMILES): Cc1nc(-c2ccncc2)c(-c2ccc(F)c(NC(=O)Nc3ccc(Cl)c(Cl)c3)c2)s1 [Example 11, 1-(3,4-dichlorophenyl)-3-(2-fluoro-5-(2-methyl-4-(pyridin-4-yl)thiazol-5-yl)phenyl)urea]
- IC50 [1]: ≤ 0.1 µM

Structure (SMILES): Cc1nc(-c2ccncc2)c(-c2ccc(F)c(NC(=O)Nc3ccc(Cl)cc3F)c2)s1 [Example 12, 1-(4-chloro-2-fluorophenyl)-3-(2-fluoro-5-(2-methyl-4-(pyridin-4-yl)thiazol-5-yl)phenyl)urea]
- IC50 [1]: ≤ 0.1 µM

Structure (SMILES): Cc1nc(-c2ccncc2)c(-c2ccc(F)c(NC(=O)Nc3cccc(Cl)c3)c2)s1 [Example 13, 1-(3-chlorophenyl)-3-(2-fluoro-5-(2-methyl-4-(pyridin-4-yl)thiazol-5-yl)phenyl)urea]
- IC50 [2]: 1 to 10 µM
- IC50 [1]: ≤ 0.1 µM

Structure (SMILES): Cc1nc(-c2ccncc2)c(-c2ccc(F)c(NC(=O)Nc3ccc(C(F)(F)F)cc3)c2)s1 [Example 14, 1-(2-fluoro-5-(2-methyl-4-(pyridin-4-yl)thiazol-5-yl)phenyl)-3-(4-(trifluoromethyl)phenyl)urea]
- IC50 [2]: 1 to 10 µM
- IC50 [1]: ≤ 0.1 µM

Structure (SMILES): Cc1nc(-c2ccncc2)c(-c2cccc(NC(=O)Nc3ccc(C(F)(F)F)cc3)c2F)s1 [Example 15, 1-(2-fluoro-3-(2-methyl-4-(pyridin-4-yl)thiazol-5-yl)phenyl)-3-(4-(trifluoromethyl)phenyl)urea]
- IC50 [2]: 1 to 10 µM
- IC50 [1]: 0.1 to 1 µM

Structure (SMILES): Cc1nc(-c2ccncc2)c(-c2ccc(F)c(NC(=O)Nc3cccc(C(F)(F)F)c3)c2)s1 [Example 16, 1-(2-fluoro-5-(2-methyl-4-(pyridin-4-yl)thiazol-5-yl)phenyl)-3-(3-(trifluoromethyl)phenyl)urea]
- IC50 [2]: > 10 µM
- IC50 [1]: ≤ 0.1 µM

Structure (SMILES): Cc1nc(-c2ccncc2)c(-c2cccc(NC(=O)Nc3ccc(S(C)(=O)=O)cc3)c2)s1 [Example 17, 1-(3-(2-methyl-4-(pyridin-4-yl)thiazol-5-yl)phenyl)-3-(4-(methylsulfonyl)phenyl)urea]
- IC50 [2]: > 10 µM
- IC50 [1]: ≤ 0.1 µM

Structure (SMILES): Cc1nc(-c2ccncc2)c(-c2cccc(NC(=O)Nc3ccc(Cl)cc3)c2F)s1 [Example 18, 1-(4-chlorophenyl)-3-(2-fluoro-3-(2-methyl-4-(pyridin-4-yl)thiazol-5-yl)phenyl)urea]
- IC50 [1]: 0.1 to 1 µM

Structure (SMILES): Cc1ccc(NC(=S)Nc2cccc(-c3sc(C)nc3-c3ccncc3)c2)cc1 [Example 19, 1-(3-(2-methyl-4-(pyridin-4-yl)thiazol-5-yl)phenyl)-3-p-tolylthiourea]
- IC50 [1]: ≤ 0.1 µM

Structure (SMILES): Cc1nc(-c2ccnc(N)c2)c(-c2cccc(NC(=O)Nc3ccc(Cl)cc3)c2F)s1 [Example 23, 1-(3-(4-(2-aminopyridin-4-yl)-2-methylthiazol-5-yl)-2-fluorophenyl)-3-(4-chlorophenyl)urea]
- IC50 [1]: 0.1 to 1 µM

Structure (SMILES): Cc1ccc(NC(=O)Nc2cccc(-c3sc(C(C)(C)C)nc3-c3ccncc3)c2)cc1 [Example 27, 1-(3-(2-tert-butyl-4-(pyridin-4-yl)thiazol-5-yl)phenyl)-3-p-tolylurea]
- IC50 [1]: 0.1 to 1 µM

Structure (SMILES): COCCNc1cc(-c2nc(C(C)(C)C)sc2-c2cccc(NC(=O)Nc3ccc(C)cc3)c2)ccn1 [Example 28, 1-(3-(2-tert-butyl-4-(2-(2-methoxyethylamino)pyridin-4-yl)thiazol-5-yl)phenyl)-3-p-tolylurea]
- IC50 [1]: 1 to 10 µM

Structure (SMILES): Cc1ccc(NC(=O)Nc2cccc(-c3sc(C(C)(C)C)nc3-c3ccnc(NCCO)c3)c2)cc1 [Example 29, 1-(3-(2-tert-butyl-4-(2-(2-hydroxyethylamino)pyridin-4-yl)thiazol-5-yl)phenyl)-3-p-tolylurea]
- IC50 [1]: ≤ 0.1 µM

Structure (SMILES): Cc1ccc(NC(=O)Nc2cccc(-c3sc(C(C)(C)C)nc3-c3ccnc(NCCN(C)C)c3)c2)cc1 [Example 30, 1-(3-(2-tert-butyl-4-(2-(2-(dimethylamino)ethylamino)pyridin-4-yl)thiazol-5-yl)phenyl)-3-p-tolylurea]
- IC50 [1]: ≤ 0.1 µM

Structure (SMILES): Cc1ccc(NC(=O)Nc2cccc(-c3sc(C(C)(C)C)nc3-c3ccnc(NCCN4CCCC4)c3)c2)cc1 [Example 31, 1-(3-(2-tert-butyl-4-(2-(2-(pyrrolidin-1-yl)ethylamino)pyridin-4-yl)thiazol-5-yl)phenyl)-3-p-tolylurea]
- IC50 [1]: ≤ 0.1 µM

Structure (SMILES): COC(=O)N[C@@H](C)CNc1cc(-c2nc(C(C)(C)C)sc2-c2cccc(NC(=O)Nc3ccc(C)cc3)c2)ccn1 [Example 32, (S)-methyl 1-(4-(2-tert-butyl-5-(3-(3-p-tolylureido)phenyl)thiazol-4-yl)pyridin-2-ylamino)propan-2-ylcarbamate]
- IC50 [1]: ≤ 0.1 µM

Structure (SMILES): O=C(Nc1ccc(Cl)cc1)Nc1cc(-c2sc(NCCN3CCOCC3)nc2-c2ccncc2)ccc1F [Example 36, 1-(4-chlorophenyl)-3-(2-fluoro-5-(2-(2-morpholinoethylamino)-4-(pyridin-4-yl)thiazol-5-yl)phenyl)urea]
- IC50 [1]: ≤ 0.1 µM

Structure (SMILES): Nc1nc(-c2ccncc2)c(-c2cccc(NC(=O)Nc3ccc(C(F)(F)F)cc3)c2F)s1 [Example 38, 1-(3-(2-amino-4-(pyridin-4-yl)thiazol-5-yl)-2-fluorophenyl)-3-(4-(trifluoromethyl)phenyl)urea]
- IC50 [1]: 0.1 to 1 µM

Structure (SMILES): Nc1nc(-c2ccncc2)c(-c2cccc(NC(=O)Nc3ccc(Cl)cc3)c2F)s1 [Example 39, 1-(3-(2-amino-4-(pyridin-4-yl)thiazol-5-yl)-2-fluorophenyl)-3-(4-chlorophenyl)urea]
- IC50 [1]: 1 to 10 µM

Structure (SMILES): Nc1nc(-c2ccncc2)c(-c2ccc(F)c(NC(=O)Nc3ccc(Cl)cc3)c2)s1 [Example 40, 1-(5-(2-amino-4-(pyridin-4-yl)thiazol-5-yl)-2-fluorophenyl)-3-(4-chlorophenyl)urea]
- IC50 [1]: ≤ 0.1 µM

Structure (SMILES): Cc1nc(-c2ccncc2)c(-c2cccc(NS(=O)(=O)c3c(F)cccc3F)c2)s1 [Example 42, 2,6-difluoro-N-(3-(2-methyl-4-(pyridin-4-yl)thiazol-5-yl)phenyl)benzenesulfonamide]
- IC50 [1]: 0.1 to 1 µM

Structure (SMILES): Cc1nc(-c2ccnc(N)c2)c(-c2cccc(NS(=O)(=O)c3c(F)cccc3F)c2)s1 [Example 43, N-(3-(4-(2-aminopyridin-4-yl)-2-methylthiazol-5-yl)phenyl)-2,6-difluorobenzenesulfonamide]
- IC50 [1]: 1 to 10 µM

Structure (SMILES): CC(C)(C)c1nc(-c2ccncc2)c(-c2cccc(NS(=O)(=O)c3c(F)cccc3F)c2)s1 [Example 44, N-(3-(2-tert-butyl-4-(pyridin-4-yl)thiazol-5-yl)phenyl)-2,6-difluorobenzenesulfonamide]
- IC50 [1]: 0.1 to 1 µM

Structure (SMILES): Cc1ccc(CC(=O)Nc2cccc(-c3sc(C)nc3-c3ccnc(N)c3)c2)cc1 [Example 45, N-[3-(2-Methyl-4-(2-aminopyridin-4-yl)-thiazol-5-yl)-phenyl]-p-tolylacetamide]
- IC50 [1]: 0.1 to 1 µM

Structure (SMILES): Cc1ccc(CC(=O)Nc2cccc(-c3sc(C(C)(C)C)nc3-c3ccncc3)c2)cc1 [Example 46, N-(3-(2-tert-butyl-4-(pyridin-4-yl)thiazol-5-yl)phenyl)-2-p-tolylacetamide]
- IC50 [1]: 1 to 10 µM

Structure (SMILES): CCn1cc(-c2cccc(NC(=O)Nc3ccc(S(=O)(=O)N4CCCC4)cc3)c2)c(-c2ccncc2)n1 [Example 58, 1-(3-(1-ethyl-3-(pyridin-4-yl)-1H-pyrazol-4-yl)phenyl)-3-(4-(pyrrolidin-1-ylsulfonyl)phenyl)urea]
- IC50 [1]: > 10 µM
